Assay results as given in US11834392B2, “KDM4B inhibitors for the treatment of inflammatory diseases and disorders” (MUSC FOUNDATION FOR RESEARCH DEVELOPMENT, priority 2019, dated 2023).
Entries after “also recorded” stand apart in the source; their conditions may differ.

Assays:
[1] = test system: bone marrow derived macrophages (BMDMs); assay: In vitro periodontal disease inflammation model (IL-6 ELISA after A.a LPS challenge); assay type: cell-based, C57BL/6 mice; details: for immunosuppressive action (pro-inflammatory cytokine response to A.a LPS): murine macrophages, A.a LPS challenge
[2] = test system: H3K9me3; assay: H3K9me3 staining to confirm KDM4B inhibitory activity; assay type: cell-based
[3] = target: T1, KDM4B (Homo sapiens, UniProt O94953); assay: KDM4B inhibition; assay type: biochemical
T1 sequence (O94953 1-1096): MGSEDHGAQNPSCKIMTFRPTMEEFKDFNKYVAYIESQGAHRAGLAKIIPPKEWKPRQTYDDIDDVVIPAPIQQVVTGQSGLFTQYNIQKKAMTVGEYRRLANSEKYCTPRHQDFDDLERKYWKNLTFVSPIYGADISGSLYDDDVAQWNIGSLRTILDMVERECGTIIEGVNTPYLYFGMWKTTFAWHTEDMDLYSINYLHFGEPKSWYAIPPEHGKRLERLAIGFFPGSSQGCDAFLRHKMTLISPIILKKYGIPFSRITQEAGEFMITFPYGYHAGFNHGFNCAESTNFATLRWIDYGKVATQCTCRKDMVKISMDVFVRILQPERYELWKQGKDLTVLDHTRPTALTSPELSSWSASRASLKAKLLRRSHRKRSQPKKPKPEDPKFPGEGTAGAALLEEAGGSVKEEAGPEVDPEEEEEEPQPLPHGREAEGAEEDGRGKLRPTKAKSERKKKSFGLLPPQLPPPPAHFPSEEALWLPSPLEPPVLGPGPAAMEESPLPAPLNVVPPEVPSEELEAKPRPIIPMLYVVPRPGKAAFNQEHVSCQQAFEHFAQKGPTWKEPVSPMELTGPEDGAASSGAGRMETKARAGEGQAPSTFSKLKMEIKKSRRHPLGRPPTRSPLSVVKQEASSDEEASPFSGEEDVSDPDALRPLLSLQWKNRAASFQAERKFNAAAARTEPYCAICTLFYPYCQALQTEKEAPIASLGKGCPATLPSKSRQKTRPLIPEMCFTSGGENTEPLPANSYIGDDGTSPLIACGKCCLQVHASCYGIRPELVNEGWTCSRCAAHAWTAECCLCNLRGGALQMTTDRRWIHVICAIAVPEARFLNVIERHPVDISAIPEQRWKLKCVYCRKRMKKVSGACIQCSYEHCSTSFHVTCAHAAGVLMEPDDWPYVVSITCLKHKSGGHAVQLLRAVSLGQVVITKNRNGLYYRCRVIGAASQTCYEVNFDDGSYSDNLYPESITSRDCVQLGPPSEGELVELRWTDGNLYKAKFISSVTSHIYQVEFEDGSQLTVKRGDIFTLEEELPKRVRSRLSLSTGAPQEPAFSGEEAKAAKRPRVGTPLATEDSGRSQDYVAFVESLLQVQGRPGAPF

[4] = test system: H3K4me; assay: Global H3K4me levels in fluorescence-stained macrophages after Aa-LPS challenge; assay type: cell-based
Source text: (§1) As such, KDM4B represents a new therapeutic target for treating hyper-inflammatory diseases that result in, for example, bone destruction.

[5] = test system: osteoclast progenitors; assay: Aa-LPS-induced osteoclastogenesis; assay type: cell-based
Source text: as §1

[6] = test system: Primary BMDMs; assay: IL-10 expression by qRT-PCR in BMDMs; assay type: cell-based; details: 50 μM 1 hour pre-treatment, A.a LPS 100 ng/mL, 24 hours
Description: Primary BMDMs were isolated and differentiated as previously described and were pre-treated with ML324 at 50 μM for 1 hour followed by A.a LPS (100 ng/mL). […] (FIG. 5D)

[7] = test system: Primary BMDMs; assay: Extracellular flux analysis (seahorse XFe96); assay type: cell-based
Description: (§2) Primary BMDMs were isolated and differentiated as previously described and were pre-treated with ML324 at 50 uM for 1 hour followed by A.a LPS (100 ng/mL). 24 hours later, extracellular flux was analyzed using a seahorse XFe96 instrument and following metabolic analysis, cells were incubated with phalloidin 488 and DAPI. Representative images were acquired using the Hermes […] system at 10× for morphological analysis. N=4. […] Primary BMDMs were isolated and differentiated as previously described and were pre-treated with ML324 at 50 μM for 1 hour followed by A.a LPS (100 ng/mL). […] (FIG. 5D)

[8] = test system: Primary BMDMs; assay: Macrophage morphology / polarization (phalloidin 488 and DAPI staining); assay type: cell-based; details: 50 μM 1 hour pre-treatment, A.a LPS 100 ng/mL, 24 hours
Description: as §2

[9] = Solubility; assay type: physicochemical; details: at effective doses
[10] = target: T2, KDM4E (Homo sapiens, UniProt B2RXH2); details: in vitro; cited from earlier work
T2 sequence (B2RXH2 1-506): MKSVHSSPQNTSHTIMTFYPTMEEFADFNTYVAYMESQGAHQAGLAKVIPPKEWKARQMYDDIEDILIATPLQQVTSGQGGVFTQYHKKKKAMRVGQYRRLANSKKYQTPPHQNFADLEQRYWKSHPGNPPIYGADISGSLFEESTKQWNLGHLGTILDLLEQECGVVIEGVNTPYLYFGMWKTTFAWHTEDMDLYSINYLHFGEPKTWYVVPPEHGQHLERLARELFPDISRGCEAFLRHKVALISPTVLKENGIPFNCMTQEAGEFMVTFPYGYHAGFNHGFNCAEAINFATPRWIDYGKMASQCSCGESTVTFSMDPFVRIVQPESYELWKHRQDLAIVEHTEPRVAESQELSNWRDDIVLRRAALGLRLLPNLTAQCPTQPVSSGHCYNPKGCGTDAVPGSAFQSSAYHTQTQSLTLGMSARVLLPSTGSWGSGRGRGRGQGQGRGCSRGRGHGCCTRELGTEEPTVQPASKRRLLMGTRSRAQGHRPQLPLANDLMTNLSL

[11] = test system: herpes simplex virus; details: mice, high doses; cited from earlier work
[12] = test system: cytomegalovirus; details: mice, high doses; cited from earlier work
[13] = cited from earlier work

Row | SMILES | dose-dependent immunosuppressive response to A.a LPS [1] | H3K9me3 expression / staining [2] | IC50 [3] [µM] | activity toward KDM4B [3] | immunosuppressive action (pro-inflammatory cytokine response to A.a LPS) [1] | immunosuppressive action (pro-inflammatory cytokine response to A.a LPS) ([1]; listed as 1) | global H3K4me levels following Aa-LPS challenge [4] | Aa-LPS-induced osteoclastogenesis [5] | IL-10 expression (mRNA) [6] | glycolytic activity of LPS treated cells ([7]; 50 μM 1 hour pre-treatment, A.a LPS 100 ng/mL, 24 hours) | spare respiratory capacity ([7]; LPS with or without ML324, compared to PBS control) | macrophage morphology / polarization (M1 phenotype) [8] | solubility [9] | inhibition of KDM4E [10] | viral replication of herpes simplex virus [11] | viral replication of cytomegalovirus [12] | cell permeability [13]
1 | O=C(Nc1ccccc1C(=O)O)c1ccc(-c2ccccc2)cc1 [Compound 12, 2-([1,1′-biphenyl]-4-carboxamido)benzoic acid] | dose-dependent immunosuppressive response; also recorded: dose-dependent immunosuppressive effect | concurrent increase in H3K9me3; also recorded: increase in H3K9me3 staining |  |  |  |  |  |  |  |  |  |  |  |  |  |  | 
2 | CN(C)CCCNC(=O)c1ccc(-c2cc(O)c3ncccc3c2)cc1 [ML324] |  |  | 4.9 | active | decreases the pro-inflammatory cytokine response | immunosuppressive action | prevented by KDM4B inhibition | significant reduction | significantly higher IL-10 expression | rescued this effect | reduced spare respiratory capacity | alters macrophage polarization; also recorded: able to rescue this effect | highly insoluble at effective doses | known to inhibit | shown to inhibit viral replication | shown to inhibit viral replication | good cell permeability
